Laboratory results taken from the CheMixHub viscosity set.

Assay: xn = mol fraction of the nth substance listed
Conditions: 101.3 kPa

C1CCCC1 + CCCCCO
Conditions	viscosity [mPa·s]
298.15 K, x1 = 0.0498	3.211
298.15 K, x1 = 0.0796	3.013
298.15 K, x1 = 0.1294	2.679
298.15 K, x1 = 0.1855	2.343
298.15 K, x1 = 0.2386	2.037
298.15 K, x1 = 0.2579	1.924
298.15 K, x1 = 0.2645	1.883
298.15 K, x1 = 0.2919	1.755
298.15 K, x1 = 0.3012	1.709
298.15 K, x1 = 0.351	1.481
298.15 K, x1 = 0.3712	1.406
298.15 K, x1 = 0.4221	1.221
298.15 K, x1 = 0.4544	1.118
298.15 K, x1 = 0.5073	0.992
298.15 K, x1 = 0.5388	0.926
298.15 K, x1 = 0.569	0.869
298.15 K, x1 = 0.596	0.827
298.15 K, x1 = 0.6189	0.79
298.15 K, x1 = 0.6343	0.771
298.15 K, x1 = 0.6621	0.739
298.15 K, x1 = 0.6893	0.707
298.15 K, x1 = 0.7282	0.685
298.15 K, x1 = 0.774	0.663
298.15 K, x1 = 0.8207	0.613
298.15 K, x1 = 0.8699	0.566
298.15 K, x1 = 0.9192	0.515
298.15 K, x1 = 0.9698	0.447
308.15 K, x1 = 0.0419	2.415
308.15 K, x1 = 0.1319	2.057
308.15 K, x1 = 0.2149	1.783
308.15 K, x1 = 0.2986	1.542
308.15 K, x1 = 0.3735	1.35
308.15 K, x1 = 0.4	1.287
308.15 K, x1 = 0.4437	1.19
308.15 K, x1 = 0.4804	1.118
308.15 K, x1 = 0.5152	1.049
308.15 K, x1 = 0.6882	0.817
308.15 K, x1 = 0.7025	0.798
308.15 K, x1 = 0.7196	0.781
308.15 K, x1 = 0.7454	0.752
308.15 K, x1 = 0.7726	0.727
308.15 K, x1 = 0.809	0.681
308.15 K, x1 = 0.8542	0.617
308.15 K, x1 = 0.9094	0.517
308.15 K, x1 = 0.955	0.418
318.15 K, x1 = 0.1213	1.768
318.15 K, x1 = 0.1891	1.573
318.15 K, x1 = 0.2652	1.36
318.15 K, x1 = 0.34	1.171
318.15 K, x1 = 0.4015	1.035
318.15 K, x1 = 0.4409	0.953
318.15 K, x1 = 0.4863	0.864
318.15 K, x1 = 0.5184	0.807
318.15 K, x1 = 0.5402	0.775
318.15 K, x1 = 0.5588	0.74
318.15 K, x1 = 0.6063	0.67
318.15 K, x1 = 0.665	0.593
318.15 K, x1 = 0.7127	0.537
318.15 K, x1 = 0.7882	0.467
318.15 K, x1 = 0.8688	0.405
318.15 K, x1 = 0.9451	0.359
